Consider 8 molecules from patent EP4603105A1, “PHARMACEUTICAL COMPOSITION CONTAINING CYCLIC COMPOUND HAVING SELECTIVE KRAS INHIBITORY EFFECT AGAINST HRAS AND NRAS” (CHUGAI SEIYAKU KABUSHIKI KAISHA, priority 2022, dated 2024).

*1 amine or outer side, *2 acyl side, *3 side chain or, on linkers, in order; H or OH if unused. Where a SMILES comes first, the peptide text is derived from it. Bridges are numbered along the chain shown (N, C = ends). [ ]: non-standard residue; d: D form. The star is where a group is joined. hPhe(3-Cl-4-CF3) = N[C@@H](CCc1ccc(C(F)(F)F)c(Cl)c1)C(=O)O; NPrPhe(4-CF3) = CCCN[C@@H](Cc1ccc(C(F)(F)F)cc1)C(=O)O; X37 = Cc1ccc(C[C@@H](C(=O)[*:2])N(CCC(C)C)[*:1])cc1; X52 = C#CCN([C@@H](Cc1ccc(C)cc1)C(=O)[*:2])[*:1]; NMeGly(cPent) = CN[C@H](C(=O)O)C1CCCC1; Aze(3S-Me) = C[C@H]1CN[C@@H]1C(=O)O; NMeD = CN[C@@H](CC(=O)O)C(=O)O; NMeL = CN[C@@H](CC(C)C)C(=O)O; Morpholide = C1CN(*)CCO1; NMeA = CN[C@@H](C)C(=O)O; Ac5c = NC1(C(=O)O)CCCC1; Aze = O=C(O)[C@@H]1CCN1; Sar = CNCC(=O)O

This experiment deals with human lung cancer strain NCI-H441. Type of experiment: cell-based. Here is the method: A test compound was dispensed into a U-bottom 384-well plate as 40 nL serially diluted dimethyl sulfoxide solutions using a liquid handler Echo (LABCYTE). […] This cell suspension was dispensed in an amount of 40 µL per well into a plate containing the test compound, and cultured at 37°C in a 5% carbon dioxide gas incubator. Four days later, 20 µL of CellTiter-Glo (registered trademark) (Promega) was added to each well and […] was measured. […]

As to `CC[C@H](C)[C@@H]1NC(=O)[C@H](CC(F)F)N(C)C(=O)C[C@@H](C(=O)N(C)C)N(C)C(=O)[C@H](C2CCCC2)N(C)C(=O)C2(CC(C)(C)C2)NC(=O)[C@@H]2C[C@@H](C)CN2C(=O)[C@H](CCc2ccc(C(F)(F)F)c(OC)c2)NC(=O)CN(C)C(=O)[C@H](Cc2ccc(C)cc2)N2CC/C=C\C[C@@H](C2=O)N(C)C(=O)CN(C)C1=O` [PP1877], the concentration for half-maximal inhibition (IC50) was 18.4 nM.

As to `CCCN1C(=O)[C@@H]2CCN2C(=O)CN(C)C(=O)[C@H]([C@@H](C)CC)NC(=O)[C@H](CC(C)C)N(C)C(=O)C[C@@H](C(=O)N(C)C)NC(=O)[C@H](C2CCCC2)N(C)C(=O)C2(CCCC2)NC(=O)[C@@H]2CCCN2C(=O)[C@H](CCc2ccc(C(F)(F)F)c(Cl)c2)NC(=O)CN(C)C(=O)[C@@H]1Cc1ccc(C(F)(F)F)cc1` [PP0385] ([NMeL]I[Sar][Aze][NPrPhe(4-CF3)][Sar][hPhe(3-Cl-4-CF3)]P[Ac5c][NMeGly(cPent)]D-NMe2; lactam N-11), it took 15.2 nM to reach half-maximal inhibition (IC50).

In turn, `CC[C@H](C)[C@@H]1NC(=O)[C@H](CC(C)C)N(C)C(=O)C[C@@H](C(=O)N2CCOCC2)N(C)C(=O)[C@H](C2CCCC2)N(C)C(=O)C2(CCCC2)NC(=O)[C@@H]2CCCN2C(=O)[C@H](CCc2ccc(C(F)(F)F)c(Cl)c2)NC(=O)CN(C)C(=O)[C@H](Cc2ccc(C)cc2)N(CCC(C)C)C(=O)CN(C)C(=O)CN(C)C1=O` [PP0098] ([NMeL]I[Sar][Sar][X37][Sar][hPhe(3-Cl-4-CF3)]P[Ac5c][NMeGly(cPent)][NMeD]-Morpholide; lactam N-11) gave an IC50 of 9.4 nM. To `CC[C@H](C)[C@@H]1NC(=O)[C@H](CC(C)C)N(C)C(=O)C[C@@H](C(=O)N2CCOCC2)N(C)C(=O)[C@H](C2CCCC2)NC(=O)C2(CCCC2)NC(=O)[C@@H]2CCCN2C(=O)[C@H](CCc2cc(F)c(C(F)(F)F)c(F)c2)NC(=O)CN(C)C(=O)[C@H](Cc2ccc(C(F)(F)F)cc2)N2CCCCC[C@@H](C2=O)N(C)C(=O)CN(C)C1=O` [PP0478] belongs 2750 nM; to `CCC[C@H]1C(=O)N[C@@H]([C@@H](C)CC)C(=O)N(C)CC(=O)N(C)[C@H]2C/C=C\CCN(C2=O)[C@@H](Cc2ccc(C)cc2)C(=O)N(C)CC(=O)N[C@@H](CCc2ccc(C(F)(F)F)c(Cl)c2)C(=O)N2C[C@H](C)C[C@H]2C(=O)NC2(CCC2)C(=O)N(C)[C@@H](C2CCCC2)C(=O)N(C)[C@H](C(=O)N(C)CC)CC(=O)N1C` [PP1850], 49.1 nM. Turning to `CCCN1C(=O)[C@@H]2CCN2C(=O)[C@@H]2[C@@H](C)CN2C(=O)[C@H]([C@@H](C)CC)NC(=O)[C@H](CC(C)C)N(C)C(=O)C[C@@H](C(=O)N2CCOCC2)N(C)C(=O)[C@H](C2CCCC2)N(C)C(=O)C2(CCCC2)NC(=O)[C@@H]2CCCN2C(=O)[C@H](CCc2ccc(C(F)(F)F)c(Cl)c2)NC(=O)CN(C)C(=O)[C@@H]1Cc1ccc(C(F)(F)F)cc1` [PP0279] ([NMeL]I[Aze(3S-Me)][Aze][NPrPhe(4-CF3)][Sar][hPhe(3-Cl-4-CF3)]P[Ac5c][NMeGly(cPent)][NMeD]-Morpholide; lactam N-11), the IC50 stood at 15 nM.

The molecule `CCCN(C)C(=O)[C@@H]1CC(=O)N(C)[C@@H](COCC)C(=O)N[C@@H]([C@@H](C)CC)C(=O)N(C)CC(=O)N(C)[C@H]2C/C=C\CCN(C2=O)[C@@H](Cc2ccc(C(F)(F)F)cc2)C(=O)N(C)CC(=O)N[C@@H](CCc2cc(F)c(C(F)(F)F)c(F)c2)C(=O)N2C[C@@H](C)C[C@H]2C(=O)NC2(CCC2)C(=O)N(C)[C@@H](C2CCCC2)C(=O)N1C` [PP2002] returned an IC50 of 15.7 nM. Next, `C#CCN1C(=O)[C@@H]2CCN2C(=O)[C@H](C)N(C)C(=O)[C@H]([C@@H](C)CC)NC(=O)[C@H](CC(C)C)N(C)C(=O)C[C@@H](C(=O)N2CCOCC2)N(C)C(=O)[C@H](C2CCCC2)N(C)C(=O)C2(CCCC2)NC(=O)[C@@H]2CCCN2C(=O)[C@H](CCc2ccc(C(F)(F)F)c(Cl)c2)NC(=O)CN(C)C(=O)[C@@H]1Cc1ccc(C)cc1` [PP0090] ([NMeL]I[NMeA][Aze][X52][Sar][hPhe(3-Cl-4-CF3)]P[Ac5c][NMeGly(cPent)][NMeD]-Morpholide; lactam N-11): 1.9 nM.

As usually defined, the IC50 is the concentration that gives 50% inhibition. Higher therefore signals weaker potency in that assay.
